This passage reports IC50 results from EP2047849A1 (KTB Tumorforschungsgesellschaft mbH, priority 2007, dated 2009).

pIC50: −log10 of the molar value.

Holding throughout (assay): 33PanQinase Activity Assay (in vitro protein kinase activity assay)
Holding throughout (format): biochemical
Conditions in all cases: recombinant purified kinase, 1 µM [γ-33P]-ATP

The target of test [1] is T1, PDGFR-alpha (Homo sapiens, UniProt P16234).
T1 construct: made in house; host or cells: Sf9 insect cells (baculovirus)
Here is the method:
(§1) Inhibition of protein kinases by compounds was measured in proprietary protein kinase activity assay (^33PanQinase® Activity Assay) using recombinant purified protein kinases. All protein kinases were expressed in Sf9 insect cells as recombinant GST-fusion proteins or His-tagged proteins by means of the baculovirus expression system. All kinases were produced from human cDNAs. Kinases were purified by affinity chromatography using either GSH-agarose (Sigma) or Ni-NTH-agarose (Qiagen). The purity of the protein kinases was examined by SDS-PAGE/Coomassie staining. Activity was measured by determination of the incorporation of radio labelled phosphate into a substrate. The reaction cocktails for all enzymes contained 60 mM HEPES-NaOH, 10 mM Tris/HCl, pH 7.5, 20 mM NaCl, 3 mM MgCl2, 3 mM MnCl2, 3 µM Na-orthovanadate, 2 mM DTT, 4% glycerol, 1 µM [γ-^33P]-ATP (approx. 6 x 10^5 cpm per well), protein kinase , and substrate. Table 1: Protein kinases inhibited with high potency in vitro by compound PQ-012, PQ-013, PQ-014, PQ-016, PQ-041, PQ-042.

Test [2] addresses T2, FAK (Homo sapiens, UniProt Q05397).
T2 construct: made in house; host or cells: Sf9 insect cells (baculovirus)
Here is the method:
as §1

In test [3] the target is T3, CHK2 (Homo sapiens, UniProt O96017).
T3 construct: made in house; host or cells: Sf9 insect cells (baculovirus)
Here is the method: as §1

Test [4] addresses T4, MAP4K4 (Homo sapiens, UniProt O95819).
T4 construct: made in house; host or cells: Sf9 insect cells (baculovirus)
Here is the method:
as §1

Test [5] concerns the target T5, Aurora B (Homo sapiens, UniProt Q96GD4).
T5 construct: made in house; host or cells: Sf9 insect cells (baculovirus)
Here is the method:
as §1

For test [6], the target named is T6, RSK2 (Homo sapiens, UniProt P51812).
T6 construct: made in house; host or cells: Sf9 insect cells (baculovirus)
Here is the method:
as §1

Test [7] has as its target T7, FLT3 D835Y (Homo sapiens, UniProt P36888, D835Y).
T7 construct: made in house; host or cells: Sf9 insect cells (baculovirus)
T7 sequence (P36888 27-993 D835Y): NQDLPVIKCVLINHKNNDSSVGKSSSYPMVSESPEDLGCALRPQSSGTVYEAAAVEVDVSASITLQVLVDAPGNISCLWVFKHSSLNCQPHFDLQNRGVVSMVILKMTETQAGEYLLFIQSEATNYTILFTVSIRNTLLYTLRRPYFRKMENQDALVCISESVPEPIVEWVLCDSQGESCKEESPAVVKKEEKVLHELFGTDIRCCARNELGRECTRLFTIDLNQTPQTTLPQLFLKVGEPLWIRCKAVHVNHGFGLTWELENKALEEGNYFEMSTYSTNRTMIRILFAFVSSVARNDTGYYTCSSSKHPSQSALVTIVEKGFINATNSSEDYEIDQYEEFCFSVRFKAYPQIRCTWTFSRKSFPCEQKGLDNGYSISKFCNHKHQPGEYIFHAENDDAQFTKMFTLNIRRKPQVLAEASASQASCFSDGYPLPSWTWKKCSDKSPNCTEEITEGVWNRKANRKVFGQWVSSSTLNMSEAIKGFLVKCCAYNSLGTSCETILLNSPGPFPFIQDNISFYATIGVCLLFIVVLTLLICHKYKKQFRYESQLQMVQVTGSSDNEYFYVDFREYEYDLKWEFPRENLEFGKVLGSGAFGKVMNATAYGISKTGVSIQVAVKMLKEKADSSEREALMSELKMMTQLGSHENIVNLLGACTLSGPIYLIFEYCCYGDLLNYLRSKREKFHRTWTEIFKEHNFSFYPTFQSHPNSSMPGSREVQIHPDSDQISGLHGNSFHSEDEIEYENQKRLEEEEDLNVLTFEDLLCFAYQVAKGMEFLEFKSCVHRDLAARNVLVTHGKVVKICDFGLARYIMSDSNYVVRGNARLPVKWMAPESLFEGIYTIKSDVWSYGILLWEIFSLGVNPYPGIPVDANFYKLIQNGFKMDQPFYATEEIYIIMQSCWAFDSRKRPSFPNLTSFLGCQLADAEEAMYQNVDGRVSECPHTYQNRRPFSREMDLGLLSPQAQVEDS
Here is the method:
as §1

The target of test [8] is T8, PLK4 (Homo sapiens, UniProt O00444).
T8 construct: made in house; host or cells: Sf9 insect cells (baculovirus)
T8 sequence (O00444 1-970): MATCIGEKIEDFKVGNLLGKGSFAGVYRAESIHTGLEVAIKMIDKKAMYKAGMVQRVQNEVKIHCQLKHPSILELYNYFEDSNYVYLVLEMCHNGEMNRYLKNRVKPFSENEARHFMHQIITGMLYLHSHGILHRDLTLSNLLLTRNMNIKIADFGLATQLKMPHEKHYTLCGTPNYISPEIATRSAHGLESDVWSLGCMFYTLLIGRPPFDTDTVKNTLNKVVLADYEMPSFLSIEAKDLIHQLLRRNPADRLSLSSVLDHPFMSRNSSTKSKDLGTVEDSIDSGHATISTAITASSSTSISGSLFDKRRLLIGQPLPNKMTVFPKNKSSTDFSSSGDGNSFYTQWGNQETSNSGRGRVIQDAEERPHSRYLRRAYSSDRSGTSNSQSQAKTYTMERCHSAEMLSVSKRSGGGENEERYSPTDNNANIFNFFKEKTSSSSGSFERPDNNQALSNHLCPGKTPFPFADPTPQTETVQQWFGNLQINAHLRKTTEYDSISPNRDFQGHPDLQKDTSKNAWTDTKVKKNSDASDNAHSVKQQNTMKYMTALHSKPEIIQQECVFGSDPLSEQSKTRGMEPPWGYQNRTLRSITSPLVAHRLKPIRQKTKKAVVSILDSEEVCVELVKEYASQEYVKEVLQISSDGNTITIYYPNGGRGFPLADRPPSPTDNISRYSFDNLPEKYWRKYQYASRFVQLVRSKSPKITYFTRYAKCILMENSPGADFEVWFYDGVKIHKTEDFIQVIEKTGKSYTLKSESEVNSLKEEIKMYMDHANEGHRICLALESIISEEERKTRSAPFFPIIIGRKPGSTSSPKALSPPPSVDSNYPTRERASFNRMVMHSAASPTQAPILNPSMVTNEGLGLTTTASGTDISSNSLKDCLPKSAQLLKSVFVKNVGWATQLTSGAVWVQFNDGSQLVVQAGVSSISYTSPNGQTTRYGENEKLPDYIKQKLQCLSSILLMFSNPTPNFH
Here is the method:
as §1

Test [9] concerns the target T9, RSK3 (Homo sapiens, UniProt Q15349).
T9 construct: made in house; host or cells: Sf9 insect cells (baculovirus)
Here is the method:
as §1

The target in test [10] is T10, PDGFR-beta (Homo sapiens, UniProt P09619).
T10 construct: made in house; host or cells: Sf9 insect cells (baculovirus)
Here is the method: as §1

Test [11] deals with T11, RSK1 (Homo sapiens, UniProt Q15418).
T11 construct: made in house; host or cells: Sf9 insect cells (baculovirus)
Here is the method:
as §1

T2 sequence (Q05397 whole entry): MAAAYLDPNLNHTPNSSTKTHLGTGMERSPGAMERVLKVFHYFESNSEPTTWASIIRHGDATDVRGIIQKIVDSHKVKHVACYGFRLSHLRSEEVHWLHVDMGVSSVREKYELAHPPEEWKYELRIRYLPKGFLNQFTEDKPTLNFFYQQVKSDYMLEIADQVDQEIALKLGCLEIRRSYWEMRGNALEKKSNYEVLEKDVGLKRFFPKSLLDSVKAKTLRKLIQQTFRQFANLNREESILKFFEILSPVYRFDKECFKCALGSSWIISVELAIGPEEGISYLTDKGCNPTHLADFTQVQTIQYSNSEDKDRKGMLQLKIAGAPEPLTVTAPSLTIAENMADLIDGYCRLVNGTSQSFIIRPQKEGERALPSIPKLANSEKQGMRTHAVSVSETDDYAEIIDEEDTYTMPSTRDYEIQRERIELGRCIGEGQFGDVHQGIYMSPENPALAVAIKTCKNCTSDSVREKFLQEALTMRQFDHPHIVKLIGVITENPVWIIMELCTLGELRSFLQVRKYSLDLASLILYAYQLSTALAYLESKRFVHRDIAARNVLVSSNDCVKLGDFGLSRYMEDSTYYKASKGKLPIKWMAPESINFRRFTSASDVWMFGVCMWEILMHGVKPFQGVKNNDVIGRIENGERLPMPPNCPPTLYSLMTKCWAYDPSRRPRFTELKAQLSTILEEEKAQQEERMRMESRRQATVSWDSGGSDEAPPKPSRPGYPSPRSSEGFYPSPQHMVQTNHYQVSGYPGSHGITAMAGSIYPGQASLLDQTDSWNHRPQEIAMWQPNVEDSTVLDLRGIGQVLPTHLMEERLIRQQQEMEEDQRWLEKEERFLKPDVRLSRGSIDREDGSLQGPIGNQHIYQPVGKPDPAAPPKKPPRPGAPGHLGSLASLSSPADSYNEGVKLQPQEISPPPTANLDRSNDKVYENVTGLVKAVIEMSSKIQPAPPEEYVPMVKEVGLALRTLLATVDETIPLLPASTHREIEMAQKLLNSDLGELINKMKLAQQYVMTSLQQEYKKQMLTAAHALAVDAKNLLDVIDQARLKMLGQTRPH
T4 sequence (O95819 whole entry): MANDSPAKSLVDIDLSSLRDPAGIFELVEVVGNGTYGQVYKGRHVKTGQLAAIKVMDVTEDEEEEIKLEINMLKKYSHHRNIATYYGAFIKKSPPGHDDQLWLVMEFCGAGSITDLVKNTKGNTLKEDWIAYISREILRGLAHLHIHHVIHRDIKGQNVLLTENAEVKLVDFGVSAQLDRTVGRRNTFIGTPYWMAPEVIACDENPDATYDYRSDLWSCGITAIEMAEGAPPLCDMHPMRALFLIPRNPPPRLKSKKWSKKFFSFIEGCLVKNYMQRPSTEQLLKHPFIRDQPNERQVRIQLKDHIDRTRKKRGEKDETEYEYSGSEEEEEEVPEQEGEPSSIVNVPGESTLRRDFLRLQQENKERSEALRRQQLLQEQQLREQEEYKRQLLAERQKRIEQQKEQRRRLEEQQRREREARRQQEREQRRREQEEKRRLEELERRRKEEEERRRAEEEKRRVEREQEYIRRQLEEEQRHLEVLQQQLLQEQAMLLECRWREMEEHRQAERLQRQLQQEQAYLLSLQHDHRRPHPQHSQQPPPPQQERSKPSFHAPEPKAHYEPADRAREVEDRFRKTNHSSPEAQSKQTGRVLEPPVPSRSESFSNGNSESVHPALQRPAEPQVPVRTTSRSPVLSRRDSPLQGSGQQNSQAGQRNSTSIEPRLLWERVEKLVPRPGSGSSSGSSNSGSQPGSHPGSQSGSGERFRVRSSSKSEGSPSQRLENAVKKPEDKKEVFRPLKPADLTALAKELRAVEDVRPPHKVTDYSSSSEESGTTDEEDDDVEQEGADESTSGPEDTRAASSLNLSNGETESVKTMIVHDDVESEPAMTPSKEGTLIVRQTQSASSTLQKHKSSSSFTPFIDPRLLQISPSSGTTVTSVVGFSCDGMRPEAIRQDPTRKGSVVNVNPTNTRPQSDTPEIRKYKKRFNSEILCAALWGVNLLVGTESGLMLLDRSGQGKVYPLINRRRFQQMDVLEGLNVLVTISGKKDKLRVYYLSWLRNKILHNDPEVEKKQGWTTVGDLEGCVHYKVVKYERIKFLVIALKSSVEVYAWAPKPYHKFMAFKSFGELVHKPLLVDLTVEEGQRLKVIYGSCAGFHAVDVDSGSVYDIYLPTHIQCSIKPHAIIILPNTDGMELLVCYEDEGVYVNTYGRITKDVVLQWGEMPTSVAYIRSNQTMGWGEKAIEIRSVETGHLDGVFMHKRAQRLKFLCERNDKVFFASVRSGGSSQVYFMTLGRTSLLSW
T3 sequence (O96017 whole entry): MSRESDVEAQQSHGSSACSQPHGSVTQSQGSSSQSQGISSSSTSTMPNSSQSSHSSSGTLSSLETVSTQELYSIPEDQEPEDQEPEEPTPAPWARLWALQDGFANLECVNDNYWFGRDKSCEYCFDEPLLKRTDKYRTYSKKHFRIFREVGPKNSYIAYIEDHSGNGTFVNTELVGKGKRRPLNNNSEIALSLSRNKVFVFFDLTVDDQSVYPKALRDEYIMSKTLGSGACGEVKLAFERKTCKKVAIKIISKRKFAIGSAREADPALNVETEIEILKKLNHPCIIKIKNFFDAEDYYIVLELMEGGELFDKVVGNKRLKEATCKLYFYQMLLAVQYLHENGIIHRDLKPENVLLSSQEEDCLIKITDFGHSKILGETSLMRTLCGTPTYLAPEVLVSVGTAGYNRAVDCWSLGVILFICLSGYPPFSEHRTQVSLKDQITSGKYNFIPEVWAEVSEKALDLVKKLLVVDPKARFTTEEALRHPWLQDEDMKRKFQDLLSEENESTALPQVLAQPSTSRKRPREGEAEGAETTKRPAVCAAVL
T9 sequence (Q15349 whole entry): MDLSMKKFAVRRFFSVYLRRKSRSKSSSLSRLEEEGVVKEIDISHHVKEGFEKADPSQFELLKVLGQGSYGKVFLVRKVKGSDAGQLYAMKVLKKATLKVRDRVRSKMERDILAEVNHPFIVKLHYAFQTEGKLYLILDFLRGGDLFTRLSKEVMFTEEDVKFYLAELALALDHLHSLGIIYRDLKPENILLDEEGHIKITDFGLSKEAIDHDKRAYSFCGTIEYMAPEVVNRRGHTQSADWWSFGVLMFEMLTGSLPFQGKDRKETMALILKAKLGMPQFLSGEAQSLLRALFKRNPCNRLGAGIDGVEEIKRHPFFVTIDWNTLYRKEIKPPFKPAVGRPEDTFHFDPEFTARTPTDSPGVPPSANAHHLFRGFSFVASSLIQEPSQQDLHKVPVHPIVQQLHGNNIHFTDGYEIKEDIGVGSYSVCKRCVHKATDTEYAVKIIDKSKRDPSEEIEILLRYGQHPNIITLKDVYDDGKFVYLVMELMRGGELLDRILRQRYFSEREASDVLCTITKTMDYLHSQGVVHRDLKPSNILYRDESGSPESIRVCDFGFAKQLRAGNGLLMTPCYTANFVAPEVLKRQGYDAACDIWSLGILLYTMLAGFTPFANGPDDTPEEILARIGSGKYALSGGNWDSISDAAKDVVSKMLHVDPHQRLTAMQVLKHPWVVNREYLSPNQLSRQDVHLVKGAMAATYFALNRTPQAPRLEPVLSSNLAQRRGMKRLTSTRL
T10 sequence (P09619 33-1106): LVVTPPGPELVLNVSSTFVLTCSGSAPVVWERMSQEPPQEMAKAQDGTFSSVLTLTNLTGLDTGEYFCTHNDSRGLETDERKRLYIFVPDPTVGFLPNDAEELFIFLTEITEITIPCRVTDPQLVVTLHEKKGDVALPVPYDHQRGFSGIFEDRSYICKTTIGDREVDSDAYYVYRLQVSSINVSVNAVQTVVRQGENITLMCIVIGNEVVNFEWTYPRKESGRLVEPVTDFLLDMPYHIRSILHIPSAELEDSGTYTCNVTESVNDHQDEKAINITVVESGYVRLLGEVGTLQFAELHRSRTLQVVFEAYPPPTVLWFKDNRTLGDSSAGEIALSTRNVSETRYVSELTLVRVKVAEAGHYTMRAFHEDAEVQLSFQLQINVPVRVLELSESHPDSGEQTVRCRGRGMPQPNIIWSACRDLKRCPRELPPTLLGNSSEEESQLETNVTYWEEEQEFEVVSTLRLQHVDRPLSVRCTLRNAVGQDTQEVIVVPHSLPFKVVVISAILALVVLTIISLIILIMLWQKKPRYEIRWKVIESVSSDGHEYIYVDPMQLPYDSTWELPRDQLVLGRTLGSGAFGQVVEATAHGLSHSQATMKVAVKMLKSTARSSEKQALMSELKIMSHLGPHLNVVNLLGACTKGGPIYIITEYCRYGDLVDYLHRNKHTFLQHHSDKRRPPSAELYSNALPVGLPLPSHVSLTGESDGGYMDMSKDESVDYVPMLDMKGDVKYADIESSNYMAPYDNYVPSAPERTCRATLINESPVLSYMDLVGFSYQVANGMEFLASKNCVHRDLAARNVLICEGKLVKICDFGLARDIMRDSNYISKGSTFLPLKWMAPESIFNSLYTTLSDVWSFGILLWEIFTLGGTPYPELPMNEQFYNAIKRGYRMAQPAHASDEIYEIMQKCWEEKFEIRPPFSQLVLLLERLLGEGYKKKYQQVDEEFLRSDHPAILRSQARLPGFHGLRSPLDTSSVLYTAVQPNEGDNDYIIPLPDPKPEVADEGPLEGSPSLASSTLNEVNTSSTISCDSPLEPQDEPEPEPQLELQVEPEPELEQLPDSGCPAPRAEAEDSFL
T5 sequence (Q96GD4 whole entry): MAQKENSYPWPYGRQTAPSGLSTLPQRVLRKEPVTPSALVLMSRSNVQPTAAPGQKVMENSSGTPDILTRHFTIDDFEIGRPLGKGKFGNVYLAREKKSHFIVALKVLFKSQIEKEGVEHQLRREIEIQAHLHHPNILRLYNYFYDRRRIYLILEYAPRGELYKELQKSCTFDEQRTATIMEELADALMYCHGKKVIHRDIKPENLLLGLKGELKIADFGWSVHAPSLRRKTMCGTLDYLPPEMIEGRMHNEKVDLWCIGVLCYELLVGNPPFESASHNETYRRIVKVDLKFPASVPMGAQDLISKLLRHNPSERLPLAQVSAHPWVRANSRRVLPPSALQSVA

As a reminder, the pIC50 is −log10 of the IC50, conventionally taken in molar units. As to `COc1ccc2[nH]c3c(c4c(c5c6cc(OC)ccc6n(C)c35)C(=O)NC4=O)c2c1` [PQ-013, 6,7,12,13-Tetrahydro-3,9-dimethoxy-12-methyl-5,7 dioxo-5H-indolo [2,3-a] pyrrolo [3,4-c]-carbazole], the pIC50 in test [1] was 8.00; in test [2] it was 4.44; in [3] it was 7.40; in [4], 7.46; in [5], 6.68; in [6], 6.37. Further, the pIC50 is more than 8.52 in test [7]; 6.74 in [8]; 6.77 in [9]; 7.72 in test [10]; 7.64 in test [11].
